The values below are quoted from earlier work in patent US11969487B2, “Non-cellular root canal filling material and non-cellular dental tissue regeneration promoting kit” (Kowa Company, Ltd., priority 2017, dated 2024).

Data set [1] has as its system dental pulp regeneration in dogs.
The test system of data set [2] is dental pulp stem cells on dentin surfaces. To be noted: dental pulp stem cells seeded on treated dentin surfaces in vitro.

Read-outs that look alike come from different tables or passages of the source.

As to trypsin, the dental pulp regeneration entry is reported as “hardly observed” in data set [1] (no transplantation of dental pulp stem cells); “promoted” in data set [1] (root canals pretreated before dental pulp stem cell transplantation, middle-aged and elderly individuals). Besides, in data set [1] (young dogs), the “effect of pretreatment on the dental pulp regeneration” value is recorded as “no effect”. Further, the “adhesion of the cells” value in data set [2] is on record as “increased”. For the same substance, the differentiation into odontoblasts result in data set [2] is reported as “promotion of differentiation into odontoblasts was observed”.
